Legend:
[1] = molecular target: T1, CYP3A4 (Homo sapiens, UniProt P08684); test: High density DDI 3 μM cocktail screen in human liver microsomes, midazolam probe; assay type: in vitro ADME; settings: human, liver microsomes, probe midazolam, read-out: % inhibition 3A4 @ 3 μM
T1 construct: utilizes human liver microsomes together with isoform-specific clinical drug probes; from tissue; host or cells: human liver microsomes
How it was run: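 Pooled human liver microsomes incubated with isoform-specific clinical probe substrates as a cocktail (midazolam for CYP3A4), with or without test compound at 3 μM. Metabolite formation followed over time by LC-MS/MS. Inhibition expressed as a single-point percentage.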

[2] = molecular target: T2, human MC3 receptors (Homo sapiens, UniProt P41968); test: In vitro agonist potency (EC50) at melanocortin receptor type 3, cAMP in recombinant cell line; assay type: cell-based
T2 construct: stably transfected with full length cDNA encoding human MC1 or MC3 receptors; expressed in transfected cells
Protocol: Measurement of In Vitro Agonist Potency (EC50) of Compounds Against Melanocortin Receptors Type 1 and 3 (MC1 and MC3).
Activation of melanocortin (MC) receptors by agonists results in activation of intracellular adenylate cyclase enzymes that synthesise the second messenger signalling molecule, adenosine 3′,5′-cyclic monophosphate (cAMP). Changes in cAMP levels following treatment of recombinant MC1 and MC3 cell lines with test compound were measured and an MC1 and MC3 potency estimate (EC50) calculated as follows: […]
Human embryonic kidney (HEK) or Chinese hamster ovary cell lines stably transfected with full length cDNA encoding human MC1 or MC3 receptors, respectively, were established using standard molecular biology methods. Test compounds were dissolved in dimethyl sulfoxide (DMSO) at 4 mM. 11 point half log unit increment dilution series of test compound, typically starting at 50 uM were prepared in a buffer comprised of phosphate buffered saline (PBS), 2.5% DMSO and 0.05% pluronic F-127 surfactant. Freshly cultured cells at 80-90% confluence were harvested and re-suspended in Dulbecco's Modified Eagle's Medium (DMEM). Cells (10,000 for MC3, 20,000 for MC1) were added to the test compound dilution series in a 384 well assay plate and incubated for 1 hour at 37° C. The relative cAMP concentration in each well was then measured using a β-galactosidase enzyme fragment complementation method purchased in kit form as the Discoverx cAMP II kit from GE Healthcare/Amersham Biosciences UK. In the case of MC1,3-Isobutyl-1-methylxanthine (IBMX) at a concentration of 750 μM was included in DMEM as the cells were re-suspended for assay. […] Sigmoidal curves were fitted to plots of log10 inhibitor concentration vs percent effect using a custom made software application called SIGHTS and EC50 estimates determined by the software as the concentration of test compound giving an effect half way between the bottom and top asymptotes of the sigmoidal dose response curve. Each experiment included an EC50 determination for alpha melanocyte stimulating hormone, which was used as a standard to track assay consistency and allow fair comparison between EC50 estimates obtained in different experiments.

[3] = In vitro metabolism rate determination, human liver microsome (HLM) assay; assay type: in vitro ADME; settings: human, liver microsomes, read-out: HLM: Clint, app
How it was run: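 Human liver microsomes at 0.5 nmol cytochrome P450/ml with 1 μM substrate, pre-warmed 5 min at 37° C, reaction started with NADP; samples taken 0–60 min and terminated. Substrate loss measured; first-order rate constant from log-linear regression converted to half-life or Clint (μl/min/mg protein).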

[4] = molecular target: MC4 receptor (Homo sapiens, UniProt P32245); test: MC4 EC50 functional potency (protocol E of US2005/0176772 / WO 2005/077935); assay type: cell-based
Protocol: The compounds of formula (I) of the present invention have utility as MCR4 agonists in the treatment of various disease states.
MC5 and MC4 EC50 activity was determined as described by assay protocols D and E, respectively, in US2005/0176772 (pages 28-30).

[5] = molecular target: T3, MC3 receptor (MC3R) (Homo sapiens, UniProt P41968); test: Nle4, D-Phe7-α-MSH inhibition at the MC3 receptor (competition binding, SPA, CHO-CRE MC3R membranes)
T3 construct: expressed in transfected cells; host or cells: CHO-CRE MC3R cells (membranes)
Source text: Nle4, D-Phe7-α-MSH Inhibition at the MC3 Receptor
(§1) Nle4, D-Phe7-α-MSH is a stable analogue of melanocyte-stimulating hormone (MSH), which is an agonist at the MC3 receptor (MC3R). Compounds can be evaluated for their ability to inhibit Nle4, D-Phe7-α-MSH binding to membranes from cells expressing the MC3R using a competition binding assay versus [^125I] Nle4, D-Phe7-α-MSH.
(§2) Cells expressing the MC3R were subject to homogenisation and the membrane fragment isolated by differential centrifugation. CHO-CRE MC3R cell membranes were coupled to PVT-PEI-WGA SPA Beads type A for 2 hours, spun at 1000 RPM for 5 mins and suspended to a final assay concentration of 800 ug bead/ml (1.2 ug membrane, 40 ug bead per well). Bead/membrane mix was incubated with 0.06 nM [^125I] Nle4, D-Phe7-α-MSH and 11 half-log concentrations of competitor ligand, in duplicate, in a total volume of 50 μl buffer per well (25 mM HEPES, 1 mM MgCl2, 2.5 mM CaCl2, 1% Pluronic F68, 1 complete EDTA protease inhibitor tablet/50 ml pH7). Non-specific binding was determined by the inclusion of 100 nM SHU9119. The reaction was initiated by the addition of bead/membranes and plates were incubated at room temperature for 12 hours (the first hour on a plate shaker), after which the amount of radioactivity present was determined using a Wallac plate counter. Ki values were determined by data analysis using appropriate software.

[6] = molecular target: T4, MC4 receptor (MC4R) (Homo sapiens, UniProt P32245); test: Nle4, D-Phe7-α-MSH inhibition at the MC4 receptor (competition binding, SPA, CHO-CRE MC4R membranes)
T4 construct: expressed in transfected cells; host or cells: CHO-CRE MC4R cells (membranes)
Source text: Nle4, D-Phe7-α-MSH Inhibition at the MC4 Receptor
as §1, with “MC4” for “MC3”, “(MC4R).” for “(MC3R).”, “MC4R” for “MC3R”
as §2, with “MC4R” for “MC3R”, “min” for “mins”, “a” for “a final assay”, “300” for “800”, “(0.15” for “(1.2”, “15” for “40”

T1 sequence (P08684 whole entry, canonical isoform): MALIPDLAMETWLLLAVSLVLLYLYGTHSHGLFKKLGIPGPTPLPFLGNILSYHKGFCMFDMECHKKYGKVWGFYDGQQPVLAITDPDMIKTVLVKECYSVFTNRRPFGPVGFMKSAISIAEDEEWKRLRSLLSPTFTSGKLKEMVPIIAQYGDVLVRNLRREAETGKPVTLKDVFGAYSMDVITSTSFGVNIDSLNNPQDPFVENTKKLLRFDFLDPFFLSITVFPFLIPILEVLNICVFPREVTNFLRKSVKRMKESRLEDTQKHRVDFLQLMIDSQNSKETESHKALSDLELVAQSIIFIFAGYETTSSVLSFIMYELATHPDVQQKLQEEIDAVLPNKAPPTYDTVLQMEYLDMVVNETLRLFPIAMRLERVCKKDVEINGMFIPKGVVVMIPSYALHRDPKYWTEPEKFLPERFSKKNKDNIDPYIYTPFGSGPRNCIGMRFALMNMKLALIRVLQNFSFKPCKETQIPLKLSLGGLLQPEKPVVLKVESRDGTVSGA
T4 sequence (P32245 whole entry): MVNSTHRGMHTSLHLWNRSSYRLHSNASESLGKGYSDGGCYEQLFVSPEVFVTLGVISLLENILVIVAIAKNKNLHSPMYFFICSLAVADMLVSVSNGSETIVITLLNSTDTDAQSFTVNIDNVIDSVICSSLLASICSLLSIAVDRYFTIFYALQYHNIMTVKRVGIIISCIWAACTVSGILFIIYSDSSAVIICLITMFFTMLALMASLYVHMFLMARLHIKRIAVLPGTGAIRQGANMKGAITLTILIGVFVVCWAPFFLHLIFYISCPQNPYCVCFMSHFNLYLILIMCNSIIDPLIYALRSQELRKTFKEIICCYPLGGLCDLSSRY
MC4 receptor, sequence (P32245 whole entry): as above
T3 sequence (P41968 whole entry): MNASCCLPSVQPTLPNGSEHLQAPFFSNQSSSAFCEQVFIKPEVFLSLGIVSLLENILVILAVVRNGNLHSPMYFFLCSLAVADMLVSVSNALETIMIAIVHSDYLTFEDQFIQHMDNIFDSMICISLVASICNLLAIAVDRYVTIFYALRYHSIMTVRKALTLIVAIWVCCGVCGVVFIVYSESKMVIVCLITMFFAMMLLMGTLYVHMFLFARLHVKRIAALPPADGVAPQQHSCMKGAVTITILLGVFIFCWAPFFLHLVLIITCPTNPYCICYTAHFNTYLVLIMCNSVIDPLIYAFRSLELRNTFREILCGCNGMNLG
T2 sequence (P41968 whole entry): as above

## CS(=O)(=O)N1CCN(C(=O)[C@@H]2CN(c3ccc(C#N)cn3)C[C@H]2c2ccc(F)cc2F)CCCC1c1ccccc1 (single isomer, unassigned) [Example 39]
[1]
  inhibition at 3 µM: 87.5%
[2]
  EC50: 942 nM
[3]
  microsomal CLint at 1 μM: 177 µL/min/mg
[4]
  EC50: 38 nM

## CS(=O)(=O)N1CCN(C(=O)[C@@H]2CN(c3cccnn3)C[C@H]2c2ccc(F)cc2F)CCCC1c1ccc(Cl)cc1 (mixture of isomers) [Example 41]
[1]
  inhibition at 3 µM: 88%
[2]
  EC50: 6670 nM
[3]
  microsomal CLint at 1 μM: 41 µL/min/mg
[4]
  EC50: 25.1 nM

## COC(=O)N1CCN(C(=O)[C@@H]2CN(c3ccc(=O)n(C)n3)C[C@H]2c2ccc(F)cc2F)CCCC1c1ccc(Cl)cc1 (mixture of isomers) [Example 80]
[5]
  Ki: 627 nM
[1]
  inhibition at 3 µM: 70.5%
[6]
  Ki: 49.8 nM
[3]
  microsomal CLint at 1 μM: 19 µL/min/mg
[4]
  EC50: 5.41 nM

## COc1ccc([C@@H]2CN(c3ccc(=O)[nH]n3)C[C@H]2C(=O)N2CCCC(c3ccc(Cl)cc3)N(S(C)(=O)=O)CC2)c(F)c1 (mixture of isomers) [Example 111, 6-[(3S,4R)-3-{[5-(4-chlorophenyl)-4-(methylsulfonyl)-1,4-diazocan-1-yl]carbonyl}-4-(2-fluoro-4-methoxyphenyl)pyrrolidin-1-yl]pyridazin-3(2H)-one]
[5]
  Ki: 942 nM
[1]
  inhibition at 3 µM: 66.5%
[6]
  Ki: 68.4 nM
[3]
  microsomal CLint at 1 μM: 24 µL/min/mg
[4]
  EC50: 14.7 nM

## CC(=O)N1CCN(C(=O)[C@@H]2CN(c3ccc(C#N)nn3)C[C@H]2c2ccc(F)cc2F)CCCC1c1ccccc1F (mixture of isomers) [Example 2]
[5]
  Ki: 375 nM
[1]
  inhibition at 3 µM: 60%
[6]
  Ki: 269 nM
[3]
  microsomal CLint at 1 μM: 39 µL/min/mg
[4]
  EC50: 19 nM

## COc1ccc([C@@H]2CN(c3ccc(=O)n(C)n3)C[C@H]2C(=O)N2CCCC(c3ccc(Cl)cc3)N(S(C)(=O)=O)CC2)c(F)c1 (mixture of isomers) [Example 115, 6-[(3S,4R)-3-{[5-(4-chlorophenyl)-4-(methylsulfonyl)-1,4-diazocan-1-yl]carbonyl}-4-(2-fluoro-4-methoxyphenyl)pyrrolidin-1-yl]-2-methylpyridazin-3(2H)-one]
[5]
  Ki: 1090 nM
[1]
  inhibition at 3 µM: 58.2%
[6]
  Ki: 53.9 nM
[3]
  microsomal CLint at 1 μM: 22.7 µL/min/mg
[4]
  EC50: 15.7 nM

## CCCC(=O)N1CCN(C(=O)[C@@H]2CN(C(C)(C)C)C[C@H]2c2ccc(F)cc2F)CCC[C@H]1c1ccc(Cl)cc1 [Example 13]
[5]
  Ki: 5000 nM
[1]
  inhibition at 3 µM: 48.8%
[6]
  Ki: 366 nM
[3]
  microsomal CLint at 1 μM: 37.8 µL/min/mg
[4]
  EC50: 13.8 nM

## COC(=O)N1CCN(C(=O)[C@@H]2CN(C(C)(C)C)C[C@H]2c2ccc(OC)cc2F)CCC[C@H]1c1ccc(Cl)cc1 [Example 71]
[5]
  Ki: 10300 nM
[1]
  inhibition at 3 µM: 49.5%
[6]
  Ki: 1050 nM
[3]
  microsomal CLint at 1 μM: 43.4 µL/min/mg
[4]
  EC50: 55.4 nM

## CC(=O)N1CCN(C(=O)[C@@H]2CN(c3cccnn3)C[C@H]2c2ccc(F)cc2F)CCC1c1ccccc1 (mixture of isomers) [Example 3]
[5]
  Ki: 3130 nM
[1]
  inhibition at 3 µM: 30%
[6]
  Ki: 521 nM
[3]
  microsomal CLint at 1 μM: 60 µL/min/mg
[4]
  EC50: 42.4 nM

## COC(=O)N1CCN(C(=O)[C@@H]2CN(c3cccnn3)C[C@H]2c2ccc(F)cc2F)CCC1c1ccccc1 (mixture of isomers) [Example 49]
[5]
  Ki: 2230 nM
[1]
  inhibition at 3 µM: 42.5%
[6]
  Ki: 208 nM
[3]
  microsomal CLint at 1 μM: 86 µL/min/mg
[4]
  EC50: 21.1 nM

## CC(=O)N1CCN(C(=O)[C@@H]2CN(c3ccc4nncn4n3)C[C@H]2c2ccc(Cl)cn2)CCC[C@@H]1c1ccc(Cl)cc1 [Example 5]
[5]
  Ki: 1680 nM
[1]
  inhibition at 3 µM: 80.4%
[6]
  Ki: 226 nM
[3]
  microsomal CLint at 1 μM: 17.4 µL/min/mg
[4]
  EC50: 23.2 nM

## COC(=O)N1CCN(C(=O)[C@@H]2CN(c3ccc(C#N)nn3)C[C@H]2c2ccc(F)cc2F)CCCC1c1ccc(Cl)cc1 (mixture of isomers) [Example 75]
[5]
  Ki: 462 nM
[1]
  inhibition at 3 µM: 73.5%
[6]
  Ki: 84.7 nM
[3]
  microsomal CLint at 1 μM: 8 µL/min/mg
[4]
  EC50: 10.7 nM

## COC(=O)N1CCN(C(=O)[C@@H]2CN(c3ccc(C#N)nn3)C[C@H]2c2ccc(F)cc2F)CCCC1c1ccc(OC)cc1 (mixture of isomers) [Example 48]
[5]
  Ki: 2660 nM
[1]
  inhibition at 3 µM: 61.5%
[6]
  Ki: 585 nM
[3]
  microsomal CLint at 1 μM: 55 µL/min/mg
[4]
  EC50: 85.5 nM

## CS(=O)(=O)N1CCN(C(=O)[C@@H]2CN(c3ccc(C#N)nn3)C[C@H]2c2ccc(Cl)cn2)CCC[C@H]1c1ccc(Cl)cc1 [Example 102]
[5]
  Ki: 545 nM
[1]
  inhibition at 3 µM: 65%
[6]
  Ki: 174 nM
[3]
  microsomal CLint at 1 μM: 16 µL/min/mg
[4]
  EC50: 12 nM

## CC(=O)N1CCN(C(=O)[C@@H]2CN(C(C)(C)C)C[C@H]2c2ccc(F)cc2F)CCC[C@H]1c1ccc(Cl)cc1 [Example 8]
[5]
  Ki: 11500 nM
[1]
  inhibition at 3 µM: 23.9%
[6]
  Ki: 1010 nM
[3]
  microsomal CLint at 1 μM: 17 µL/min/mg
[4]
  EC50: 52.1 nM

## CC(C)(C)N1C[C@@H](C(=O)N2CCC[C@@H](c3ccc(Cl)cc3)N(C(=O)CC(F)(F)F)CC2)[C@H](c2ccc(F)cc2F)C1 [Example 12]
[5]
  Ki: 4150 nM
[1]
  inhibition at 3 µM: 34%
[6]
  Ki: 807 nM
[3]
  microsomal CLint at 1 μM: 17 µL/min/mg
[4]
  EC50: 32.8 nM

## COCC(=O)N1CCN(C(=O)[C@@H]2CN(C(C)(C)C)C[C@H]2c2ccc(F)cc2F)CCC[C@H]1c1ccc(Cl)cc1 [Example 9]
[5]
  Ki: 12600 nM
[1]
  inhibition at 3 µM: 29.1%
[6]
  Ki: 1530 nM
[3]
  microsomal CLint at 1 μM: 44.7 µL/min/mg
[4]
  EC50: 52.8 nM
